From US8378100B2, “Phosphonate derivatives as autotaxin inhibitors” (University of Virginia Patent Foundation, priority 2008, dated 2013)

Target: recombinant human ATX (Homo sapiens, UniProt Q13822)
Assay: Choline detection assay for ATX
Assay type: biochemical
Conditions: for ATX activity (%) 1 μM / ATX activity (%) 10 Mm / ATX activity (%) 100 μM: Table 1 (f1-f34), activity without test compound = 100%; for ATX activity (%) 1 μM: 1 μM test compound; for ATX activity (%) 10 Mm: 10 μM test compound as printed; for ATX activity (%) 100 μM: 100 μM test compound; for ATX inhibition (in words): compounds synthesized from D-tyrosine
Method: The phosphonate derivatives were tested in choline detection assay for ATX inhibition. The ATX activity assay was conducted in 0.1 ml, buffer: (in mM: Tris-HCl 100, pH9, NaCl 150, MgCl2 5, CoSO4 0.03, 0.05% Triton X-100), 1 mM 18:1 LPC, using recombinant human ATX with or without test compounds; incubation was for 16 hours at 37° C. The released choline was detected as follows: Samples were mixed with 0.15 ml of 50 mM TrisHCl containing 2.7 mM TOOS(N-ethyl-N-2-hydroxy-3-sulfopropyl)-m-toluidine, 2.7 mM 4-AAP (4-aminoantipyrine), 47.7 U/ml horseradish peroxidase, 18 U/ml choline oxidase, and 5 mM MgCl2. After 30 min incubation at 37° C., light absorbance (550 nm) was determined, and the amount of choline release was calculated from a standard curve.
The ATX activity was measured in the presence of the test compounds under different concentrations (100 μM, 10 μM and 1 μM). The ATX activity without TEST compounds was used as the standard (100% activity). Some β-hydroxy phosphonate derivatives inhibited ATX activity at only the highest concentration tested. […] These two compounds were synthesized from protected L-tyrosine and they are diastereomers. The less polar isomer, f17, (also known as VPC8a202) was able to inhibit 73% of ATX activity at 1 μM.

CCCCCCCCCCCCCCCC(=O)N[C@H](Cc1ccc(OCc2ccccc2)cc1)C(O)CP(=O)(O)O (single isomer, unassigned) [f5]
ATX activity (%) 1 μM (1 µM): 83% | ATX activity (%) 10 Mm: 82% | ATX activity (%) 100 μM (100 µM): 83%

CCCCCCCCCCCCCCCC(=O)N[C@H](Cc1ccc(OCc2ccccc2)cc1)C(O)CP(=O)(O)O (single isomer, unassigned) [f6]
ATX activity (%) 1 μM (1 µM): 80% | ATX activity (%) 10 Mm: 81% | ATX activity (%) 100 μM (100 µM): 83%

CCCCCCCCCCCCCCCC(=O)N[C@@H](Cc1ccc(OCc2ccccc2)cc1)C(O)CP(=O)(O)O (single isomer, unassigned) [f7]
ATX activity (%) 1 μM (1 µM): 97% | ATX activity (%) 10 Mm: 77% | ATX activity (%) 100 μM (100 µM): 68%

CCCCCCCCCCCCCCCC(=O)N[C@@H](Cc1ccc(OCc2ccccc2)cc1)C(O)CP(=O)(O)O (single isomer, unassigned) [f8]
ATX activity (%) 1 μM (1 µM): 76% | ATX activity (%) 10 Mm: 83% | ATX activity (%) 100 μM (100 µM): 78%

CCCCCCCCCCCCCCCC(=O)N[C@H](Cc1ccc(OCc2ccccc2)cc1)C(O)CP(=O)(O)O (single isomer, unassigned) [f9]
ATX activity (%) 1 μM (1 µM): 103% | ATX activity (%) 10 Mm: 76% | ATX activity (%) 100 μM (100 µM): 60%

CCCCCCCCCCCCCCCC(=O)N[C@H](Cc1ccc(OCC2CCCCC2)cc1)C(O)CP(=O)(O)O (single isomer, unassigned) [f13]
ATX activity (%) 1 μM: 84% | ATX activity (%) 10 Mm: 80% | ATX activity (%) 100 μM: 67%

CCCCCCCCCCCCCCCC(=O)N[C@@H](Cc1ccc(OCC2CCCCC2)cc1)C(O)CP(=O)(O)O (single isomer, unassigned) [f14]
ATX activity (%) 1 μM: 80% | ATX activity (%) 10 Mm: 80% | ATX activity (%) 100 μM: 80%

CCCCCCCCCCCCCCCC(=O)N[C@H](Cc1ccc(OCc2ncc(C)c(OC)c2C)cc1)C(O)CP(=O)(O)O (single isomer, unassigned) [f15]
ATX activity (%) 1 μM (1 µM): 108% | ATX activity (%) 10 Mm: 95% | ATX activity (%) 100 μM (100 µM): 63% | ATX inhibition (in words): did potently inhibit ATX

CCCCCCCCCCCCCCCC(=O)N[C@H](Cc1ccc(OCc2ncc(C)c(OC)c2C)cc1)C(O)CP(=O)(O)O (single isomer, unassigned) [f16]
ATX activity (%) 1 μM (1 µM): 69% | ATX activity (%) 10 Mm: 64% | ATX activity (%) 100 μM (100 µM): 47% | ATX inhibition (in words): did potently inhibit ATX

CCCCCCCCCCCCCCCC(=O)N[C@@H](Cc1ccc(OCc2ncc(C)c(OC)c2C)cc1)C(O)CP(=O)(O)O (single isomer, unassigned) [f18]
ATX activity (%) 1 μM: 63% | ATX activity (%) 10 Mm: 21% | ATX activity (%) 100 μM: 8% | inhibition of ATX (in words) (at 1 μM): significant inhibition

CCCCCCCCCCCCCCCC(=O)N[C@H](Cc1ccc(OC)cc1)C(O)CP(=O)(O)O (single isomer, unassigned) [f19]
ATX activity (%) 1 μM (1 µM): 100% | ATX activity (%) 10 Mm: 78% | ATX activity (%) 100 μM (100 µM): 57%

CCCCCCCCCCCCCCCC(=O)N[C@H](Cc1ccc(OC)cc1)C(O)CP(=O)(O)O (single isomer, unassigned) [f20]
ATX activity (%) 1 μM (1 µM): 95% | ATX activity (%) 10 Mm: 84% | ATX activity (%) 100 μM (100 µM): 82%

CCCCCCCCCCCCCCCC(=O)N[C@@H](Cc1ccc(OC)cc1)C(O)CP(=O)(O)O (single isomer, unassigned) [f21]
ATX activity (%) 1 μM (1 µM): 77% | ATX activity (%) 10 Mm: 56% | ATX activity (%) 100 μM (100 µM): 36%

CCCCCCCCCCCCCCCC(=O)N[C@@H](Cc1ccc(OC)cc1)C(O)CP(=O)(O)O (single isomer, unassigned) [f22]
ATX activity (%) 1 μM (1 µM): 84% | ATX activity (%) 10 Mm: 80% | ATX activity (%) 100 μM (100 µM): 69%

CCCCCCCCCCCCCCCC(=O)N[C@H](Cc1ccc(OCCC)cc1)C(O)CP(=O)(O)O (single isomer, unassigned) [f23]
ATX activity (%) 1 μM (1 µM): 80% | ATX activity (%) 10 Mm: 79% | ATX activity (%) 100 μM (100 µM): 72%
